In patent US9273317B2, “Methods and compositions for inhibiting the growth and/or proliferation of MYC-driven tumor cells” (Fred Hutchinson Cancer Research Center, priority 2011, dated 2016):

Experiments:
[1] = tested on: MYC overexpressing cells; test: IC261 viability by CellTiter-Glo in cells with or without MYC overexpression; type: cell-based, human; conditions: 48 hrs, HFF with or without c-Myc, Tet21N with or without doxycyclin, IMR-32
Description: (§1) a. HFF cell lines with or without c-Myc over-expression were treated with 0-10 uM IC261 for 48 hrs. The cells were exposed to CellTiter-Glo reagent and viability was assessed by ATP-induced chemiluminescence. Values indicate mean±SD. b. Tet21N cells with or without doxycyclin treatment and IMR-32 cells (MYCN+) were treated with 0-30 uM IC261 for 48 hrs. The cells were exposed to CellTiter-Glo reagent and the viability was assessed by ATP-induced chemiluminescence. Values indicate mean±SD. c. Cell growth curves for HFF-pBabe incubated with different concentrations of IC261. d. Cell growth curves for HFF-MYC incubated with different concentrations of IC261.
(§2) As there is strong selection to escape lentiviral-mediated silencing of genes that are necessary for cell growth, we proceeded to evaluate a small molecule inhibitor of CSNK1e enzymatic activity, IC261^33. […] A cohort of ten xenograft bearing mice was randomized into two groups with approximate equal tumor burden; one group was treated with daily subcutaneous injection of IC261 for 8 consecutive days, while the control group was treated with DMSO vehicle only. […] Taken together, the results obtained by genetic knock-down as well as via small molecule inhibitor validate CSNK1e as a potential therapeutic target for MYCN-driven neuroblastoma.

[2] = tested on: MYCN amplified neuroblastoma xenograft (IMR32); test: IC261 treatment of MYCN amplified neuroblastoma xenograft; type: in vivo, NOD/SCID mice
Description: FIG. 3. IC261 treatment blocks MYCN amplified neuroblastoma tumor growth in vivo. a, Representative images of MYCN amplified neuroblastoma xenograft in NOD/SCID mice before and after treatment with either DMSO or IC261. Tumors were engrafted, and allowed to reach a size of about 100 mm^3, then IC261 (21.5 mg/kg) or DMSO was injected subcutaneously daily for 8 days. b, Quantitation of tumor size over the 8-day treatment regimen with either IC261 or DMSO control. Values represent mean tumor volume at each time point (n=5 for each group, error bars indicate SD). c, Immunohistochemical analysis of tumor sections from IC261 and DMSO treatment groups described in a and b. Representative images of H-E, TUNEL and BrdU staining for each group are shown. BrdU was administered 2 h before collection. d. Quantification of TUNEL positive cells and BrdU positive cells per field in DMSO or IC-261 treated xenograft tumors. Error bars indicate SD of means.
as §2

[3] = tested on: IMR-32 cells (MYCN+); test: IC261 viability by CellTiter-Glo in IMR-32 cells; type: cell-based, human; conditions: 0-30 uM, 48 hrs
Description: as §1, §2

[4] = tested on: HFF-MYC; test: High throughput siRNA screen, cell viability by Alamar Blue, c-MYC overexpressing cells; type: cell-based, human
Description: (§3) FIG. 1. Identification of synthetic lethal genes with c-MYC overexpression by high throughput siRNA screening. a, Graphical schematic of the siRNA screen. HFF expressing either c-MYC or transduced with an empty retroviral vector, pB, were plated in 384 well plates. 24 hr later they were transfected with siRNA pools (3 siRNAs/pool) targeting a total of ˜3,311 genes, with one gene targeted per well. At day 5, the viability was quantified utilizing an Alamar Blue staining assay and an EnVision plate reader. b, Graphical representation of cell viability as affected by each siRNA pool in both HFF-pB or HFF-c-MYC and quantified as % relative to mock (on a log10 scale). Values represent the average viability of 3 replicates. A set of siRNAs (targeting 102 genes labeled as light shaded+) caused differential loss of viability (Z score>2) in the HFF-MYC versus control pB. An additional set of siRNAs targeting 20 genes caused selective growth advantage to HFF-MYC. c, CSNK1e, PES1 and CECR2 mRNA levels following lentiviral-mediated shRNA knock-down. Relative levels of each gene were calculated using the ΔΔCT method and using GAPDH to normalize mRNA levels within each sample. d, Viability of HFF-pBabe and HFF-Myc following stable, lentiviral based knock-down of MYC-SL genes CSNK1e, PES1 and CECR2. […] Y-axis indicates the % of cells stained with anti-γ-H2AX that scored for nuclear fluorescence levels above a negative control established threshold. Quantitation was obtained by automated microscopy in 96 well format, from triplicate samples. g, Quantitative assessment of Caspase-3 and -7 cleavage following transfection of the same siRNA pools as above (measured by the CaspaseGlo kit, Promega). […]
We employed a high throughput robotics-based approach for massive parallel testing of an arrayed siRNA library to accurately quantify the effects of siRNAs against ˜3,300 druggable genes and 200 microRNAs on the viability of HFF-MYC (stably transduced with a retroviral vector expressing c-MYC), or a control empty vector, HFF-pB^14, see FIG. 1a for schematic of the experimental set-up). […]

[5] = tested on: HFF-pB; test: High throughput siRNA screen, cell viability by Alamar Blue, control cells; type: cell-based, human; conditions: siRNA pool (3 siRNAs/pool), day 5, average of 3 replicates, relative to median of wells transfected with siRNA to luciferase
Description: as §3, with “A set of siRNAs (targeting 102 genes labeled as light shaded+) caused differential loss of viability (Z score>2) in the HFF-MYC versus control pB. An additional set of siRNAs targeting 20 genes caused selective growth advantage to HFF-MYC. c, CSNK1e, PES1 and CECR2 mRNA levels following lentiviral-mediated shRNA knock-down.” left out

| Compound | differences in IC50, MYC overexpressing versus normal or low MYC expressing cells [1] [fold] | tumor growth ([2]; 21.5 mg/kg subcutaneously daily for 8 days) | apoptosis by TUNEL staining of tumor tissue ([2]; after IC261 treatment) | BrdU labeling of tumor tissue ([2]; after IC261 treatment, BrdU 2 h before collection) | sensitivity to IC261 in vitro [3] | Z score (>than) ([4]; differential loss of viability HFF-MYC versus HFF-pB) | Ratio pBabe/Myc ([4]; ratio of percent viability of a given siRNA pool in HFF-pB/HFF-MYC) | % Viability HFF-MYC ([4]; siRNA pool (3 siRNAs/pool), day 5, average of 3 replicates, relative to median of wells transfected with siRNA to luciferase) [%] | % Viability HFF-pB [5] [%] |
| --- | --- | --- | --- | --- | --- | --- | --- | --- | --- |
| COc1cc(OC)c(C=C2C(O)=Nc3ccccc32)c(OC)c1 [IC261] | > 100 | effective in halting tumor growth in all treated mice | very little apoptosis was detected | marked decrease in BrdU labeling | highly sensitive | – | – | – | – |
| CTPS | – | – | – | – | – | > 2.5 | 3.63 | 19.44 | 70.57 |
